BindingDB's records for doi:10.1073/pnas.0608389103 (Johns Hopkins University, 2006)

Tests used:
[1] = target: Methionine aminopeptidase 2 (Homo sapiens, UniProt P50579); assay: MetAP Inhibition Assay; conditions: pH 7.5; 22 °C
Method: (§1) The MetAP reaction with Co2+ as a cofactor is coupled to a prolyl aminopeptidase (ProAP) using Met-Pro-p-nitroanilide as substrate. MetAP-catalyzed cleavage of the N-terminal methionine produces prolyl-p-nitroanilide, which is rapidly hydrolyzed by ProAP to release a chromogenic product. […] The initial rate was calculated from the early part of the reaction progress curve (<5 min). Activity assays were performed in triplicate using eight to 16 concentrations of substrate or inhibitor.

[2] = target: Methionine aminopeptidase 1 (Homo sapiens, UniProt P53582); assay: MetAP Inhibition Assay; conditions: pH 7.5; 22 °C
Method: as §1

Methionine aminopeptidase 2, sequence (P50579 whole entry): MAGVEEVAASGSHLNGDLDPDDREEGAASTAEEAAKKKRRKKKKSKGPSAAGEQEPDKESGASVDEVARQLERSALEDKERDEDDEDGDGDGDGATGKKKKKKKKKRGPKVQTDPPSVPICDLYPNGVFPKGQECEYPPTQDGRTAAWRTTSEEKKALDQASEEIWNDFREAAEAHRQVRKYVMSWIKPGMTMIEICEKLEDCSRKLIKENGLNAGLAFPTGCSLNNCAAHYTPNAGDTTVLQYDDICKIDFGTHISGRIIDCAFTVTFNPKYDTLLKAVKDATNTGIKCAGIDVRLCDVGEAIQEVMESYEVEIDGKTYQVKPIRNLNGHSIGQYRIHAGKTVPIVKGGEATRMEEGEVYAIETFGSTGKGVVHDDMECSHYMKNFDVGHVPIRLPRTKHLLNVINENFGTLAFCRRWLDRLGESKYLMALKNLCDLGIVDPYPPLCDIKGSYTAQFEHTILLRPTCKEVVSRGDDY

| IC50 [1] | IC50 [2] | SMILES |
| --- | --- | --- |
| > 500 µM |  | CC(C)(C)C(=O)Nc1cccnc1C(=O)Nc1nccs1 [3-(2,2-dimethylpropanamido)-N-(1,3-thiazol-2-yl)pyridine-2-carboxamide] |
| > 1000 µM | 6.4 µM | CC(C)C=Nc1cccnc1C(=O)Nc1nccs1 [3-[(E)-(2-methylpropylidene)amino]-N-(1,3-thiazol-2-yl)pyridine-2-carboxamide] |

Second part, the compound before the results:

| SMILES | IC50 [1] | IC50 [2] |
| --- | --- | --- |
| CCCCCCCC(=O)Nc1cccnc1C(=O)Nc1nccs1 [3-octanamido-N-(1,3-thiazol-2-yl)pyridine-2-carboxamide] | > 500 µM | > 500 µM |
| CC(C)(C)OC(=O)Nc1cccnc1C(=O)Nc1nccs1 [tert-butyl N-[2-(1,3-thiazol-2-ylcarbamoyl)pyridin-3-yl]carbamate] | > 300 µM |  |
| O=C(CCc1ccccc1)Nc1cccnc1C(=O)Nc1nccs1 [3-(3-phenylpropanamido)-N-(1,3-thiazol-2-yl)pyridine-2-carboxamide] | > 500 µM | 3.5 µM |
